In patent US20260234136A1, “ISOXAZOLIDINES AS RIPK1 INHIBITORS AND USE THEREOF” (GENZYME CORPORATION, priority 2023, published 2026) one finds IC50 and solubility data, which are given here for 17 compounds.

The subject of one series is U937 cells. Description: Cellular assay in U937 cells to measure the activity of RIPK1-inhibitors on cell death (necroptosis). Type of series: cell-based. As to conditions: Homo sapiens, U-937, 50 μM zVAD.fmk and 100 ng/ml recombinant human TNFα, overnight (18 to 24 hrs), MTS readout.
The nature of another series: physchem. As to conditions: 50 mM phosphate buffer, 25 °C, pH 7.4, aqueous buffer, thermodynamic from solid.

In brackets after ≈: the same amount, converted by molar mass.

On to `O=C1CCCN1c1nccc(N2CCC(C(=O)N3OCC[C@H]3c3cncc(F)c3)CC2)n1` [Example 71, 1-[4-[4-[(3S)-3-(5-fluoropyridin-3-yl)-1,2-oxazolidine-2-carbonyl]piperidin-1-yl]pyrimidin-2-yl]pyrrolidin-2-one], for which the IC50 (in general, the concentration needed to halve the response being measured) in the series on U937 cells turned out to be 2340 nM. In addition, in the series “physchem”, the solubility (as a rule, the concentration that dissolves in the medium under given conditions) at 16 h was over 1140 µM.
The corresponding values for `O=C(C1CCN(c2nccc(N3CCC(F)(F)C3=O)n2)CC1)N1OCC[C@H]1c1cncc(F)c1` [Example 75, 3,3-difluoro-1-[2-[4-[(3S)-3-(5-fluoropyridin-3-yl)-1,2-oxazolidine-2-carbonyl]piperidin-1-yl]pyrimidin-4-yl]pyrrolidin-2-one] are 58 nM and 98.4 µM (≈ 46.9 µg/mL).
On to `Cc1ccc([C@@H]2CCON2C(=O)C2CCN(c3ncc(F)c(-n4ccnc4C)n3)CC2)cn1` [Example 77, [1-[5-fluoro-4-(2-methylimidazol-1-yl)pyrimidin-2-yl]piperidin-4-yl]-[(3S)-3-(6-methylpyridin-3-yl)-1,2-oxazolidin-2-yl]methanone], for which the IC50 in the series on U937 cells is 1 nM. In addition, the solubility at 16 h in the series “physchem” is over 1110 µM.
Take `Cc1ccc([C@@H]2CCON2C(=O)C2CCN(c3nccc(N4CCCC4=O)n3)CC2)cn1` [Example 81, 1-[2-[4-[(3S)-3-(6-methylpyridin-3-yl)-1,2-oxazolidine-2-carbonyl]piperidin-1-yl]pyrimidin-4-yl]pyrrolidin-2-one]: the IC50 with U937 cells came out at 52 nM. Also, in “physchem”, the solubility at 16 h is over 1150 µM.
For the compound `Cc1ccc([C@@H]2CCON2C(=O)C2CCN(c3cc(N4CCCC4=O)ncn3)CC2)cn1` [Example 82, 1-[6-[4-[(3S)-3-(6-methylpyridin-3-yl)-1,2-oxazolidine-2-carbonyl]piperidin-1-yl]pyrimidin-4-yl]pyrrolidin-2-one], the IC50 with U937 cells stood at 10000 nM. For the same compound, the solubility at 16 h in the series “physchem” is over 1150 µM.
`Cc1ccc([C@@H]2CCON2C(=O)C2CCN(c3ccnc(N4CCC(C)(C)C4=O)n3)CC2)cn1` [Example 84, 3,3-dimethyl-1-[4-[4-[(3S)-3-(6-methylpyridin-3-yl)-1,2-oxazolidine-2-carbonyl]piperidin-1-yl]pyrimidin-2-yl]pyrrolidin-2-one]: the IC50 with U937 cells is 8130 nM. The solubility at 16 h in the series “physchem” was over 1080 µM.
With `Cc1ccc([C@@H]2CCON2C(=O)C2CCN(c3nccc(N4C(=O)CCC4(C)C)n3)CC2)cn1` [Example 88, 5,5-dimethyl-1-[2-[4-[(3S)-3-(6-methylpyridin-3-yl)-1,2-oxazolidine-2-carbonyl]piperidin-1-yl]pyrimidin-4-yl]pyrrolidin-2-one], the IC50 with U937 cells was 1360 nM. The compound also returned a solubility at 16 h in the series “physchem” of over 1080 µM.
As for `O=C1OCCN1c1ccnc(N2CCC(C(=O)N3OCC[C@H]3c3cncc(F)c3)CC2)n1` [Example 91, 3-[2-[4-[(3S)-3-(5-fluoropyridin-3-yl)-1,2-oxazolidine-2-carbonyl]piperidin-1-yl]pyrimidin-4-yl]-1,3-oxazolidin-2-one], the IC50 in the series on U937 cells stood at 7 nM. In “physchem”, this compound had a solubility at 16 h of over 1130 µM.
As to `CO[C@@H]1CCCN(c2ccnc(N3CCC(C(=O)N4OCC[C@H]4c4ccc(C)nc4)CC3)n2)C1=O` [Example 93, (3R)-3-methoxy-1-[2-[4-[(3S)-3-(6-methylpyridin-3-yl)-1,2-oxazolidine-2-carbonyl]piperidin-1-yl]pyrimidin-4-yl]piperidin-2-one], the IC50 with U937 cells is 436 nM. Moreover, the solubility at 16 h in the series “physchem” is over 1040 µM.
The like results for `CO[C@H]1CCCN(c2ccnc(N3CCC(C(=O)N4OCC[C@H]4c4ccc(C)nc4)CC3)n2)C1=O` [Example 94, (3S)-3-methoxy-1-[2-[4-[(3S)-3-(6-methylpyridin-3-yl)-1,2-oxazolidine-2-carbonyl]piperidin-1-yl]pyrimidin-4-yl]piperidin-2-one] were, in that order, 216 nM and over 1040 µM.
The like results for `Cc1nc([C@@H]2CCON2C(=O)C2CCN(c3nccc(N4CCCC4=O)n3)CC2)co1` [Example 95, 1-[2-[4-[(3S)-3-(2-methyl-1,3-oxazol-4-yl)-1,2-oxazolidine-2-carbonyl]piperidin-1-yl]pyrimidin-4-yl]pyrrolidin-2-one] were, in that order, 26 nM and over 1170 µM.
The corresponding values for `CO[C@@H]1CCCN(c2ccnc(N3CCC(C(=O)N4OCC[C@H]4c4cncc(F)c4)CC3)n2)C1=O` [Example 96, (3R)-1-[2-[4-[(3S)-3-(5-fluoropyridin-3-yl)-1,2-oxazolidine-2-carbonyl]piperidin-1-yl]pyrimidin-4-yl]-3-methoxypiperidin-2-one] are 149 nM and over 1030 µM.
Regarding `CO[C@H]1CCCN(c2ccnc(N3CCC(C(=O)N4OCC[C@H]4c4cncc(F)c4)CC3)n2)C1=O` [Example 97, (3S)-1-[2-[4-[(3S)-3-(5-fluoropyridin-3-yl)-1,2-oxazolidine-2-carbonyl]piperidin-1-yl]pyrimidin-4-yl]-3-methoxypiperidin-2-one], the IC50 in the series on U937 cells was found to be 86 nM. This compound yielded a solubility at 16 h in the series “physchem” of over 1030 µM.
The corresponding values for `O=C1CCCN1c1ccnc(N2CC[C@@H](C(=O)N3OCC[C@H]3c3cnccn3)C3(CC3)C2)n1` [Example 100, 1-[2-[(8R)-8-[(3S)-3-pyrazin-2-yl-1,2-oxazolidine-2-carbonyl]-5-azaspiro[2.5]octan-5-yl]pyrimidin-4-yl]pyrrolidin-2-one] are 12 nM and 269 µM (≈ 121 µg/mL).
The corresponding values for `Cc1ncc([C@@H]2CCON2C(=O)C2CCN(c3nccc(-c4cc(N)nn4C)n3)CC2)cc1F` [Example 102, [1-[4-(5-amino-2-methylpyrazol-3-yl)pyrimidin-2-yl]piperidin-4-yl]-[(3S)-3-(5-fluoro-6-methylpyridin-3-yl)-1,2-oxazolidin-2-yl]methanone] are 1 nM and over 1070 µM.
For the compound `Cc1cncc([C@@H]2CCON2C(=O)C2CCN(c3ncc(F)c(N4CCC5(CC5)C4=O)n3)CC2)c1` [Example 103, 5-[5-fluoro-2-[4-[(3S)-3-(5-methylpyridin-3-yl)-1,2-oxazolidine-2-carbonyl]piperidin-1-yl]pyrimidin-4-yl]-5-azaspiro[2.4]heptan-4-one], the half-inhibitory concentration (IC50) in the series on U937 cells turned out to be 6 nM. Also, the solubility at 16 h in “physchem” was over 1040 µM.
The corresponding values for `O=C(C1CCN(c2ncc(F)c(N3CCC4(CC4)C3=O)n2)CC1)N1OCC[C@H]1c1cncc(F)c1` [Example 104, 5-[5-fluoro-2-[4-[(3S)-3-(5-fluoropyridin-3-yl)-1,2-oxazolidine-2-carbonyl]piperidin-1-yl]pyrimidin-4-yl]-5-azaspiro[2.4]heptan-4-one] are 2 nM and over 1030 µM.
